Legend:
[1] = test system: Myzus persicae (green peach aphid); experiment: Example B1: activity against Myzus persicae, sprayed sunflower leaf discs (feeding/residual contact, preventive); conditions: foliar, 144 h, read-out: activity (mortality)
[2] = test system: Aphis Craccivora (cowpea aphid); experiment: Example B11: translaminar activity against Aphis craccivora on French bean leaves; type: in vivo; conditions: 120 h, upper leaf side painted, aphids on lower side, 5 days
Protocol: Translaminar Activity Against Aphis Craccivora (Cowpea Aphid)
French bean leaves (Phaseolus vulgaris) are infested with about 20 mixed age individuals on the lower leaf side using clip cages. 1 day after the infestation, the upper side of the leaves is treated with the test solution by painting. 5 days later, samples are checked for mortality.

[3] = test system: Nilaparvata lugens (brown rice planthopper); experiment: Example B8: activity against Nilaparvata lugens, sprayed rice seedlings (larvicide, feeding/contact); conditions: in Oryza sativa, read-out: activity (mortality, growth regulation, effects on F1 generation)
[4] = test system: Myzus persicae (green peach aphid); experiment: Example B13: drench activity against Myzus persicae, pea seedlings in field soil; conditions: 168 h, read-out: drench activity (mortality)
[5] = test system: Tetranychus urticae (two-spotted spider mite); experiment: Example B4: activity against Tetranychus urticae, sprayed bean leaf discs (feeding/residual contact, preventive); conditions: foliar, 192 h, read-out: activity (egg, larval and adult mortality)
[6] = test system: Myzus persicae (green peach aphid); experiment: Example B2: activity against Myzus persicae, pea seedling roots in test solution (systemic/feeding, curative); conditions: 144 h, read-out: activity (mortality)
[7] = test system: Thrips tabaci (onion thrips); experiment: Example B3: activity against Thrips tabaci, sprayed sunflower leaf discs (feeding/residual contact, preventive); type: in vivo; conditions: foliar, 144 h, mixed population, 6 days
Excerpt: Activity Against Thrips tabaci (Onion Thrips)
(Mixed Population, Feeding/Residual Contact Activity, Preventive)

[8] = test system: Aphis Craccivora (cowpea aphid); experiment: Example B10: activity against Aphis craccivora, pea seedling roots in test solution (systemic/feeding); type: in vivo; conditions: 144 h, roots of infested pea seedlings in test solution, 6 days
Excerpt: Activity Against Aphis Craccivora (Cowpea Aphid)
(Mixed Population, Systemic/Feeding)

[9] = test system: Myzus persicae (green peach aphid); experiment: Example B17: activity against Myzus persicae on sprayed pepper plants (feeding/residual contact); type: in vivo; conditions: 144 h, infested pepper plants sprayed, 6 days
[10] = test system: Bemisia tabaci (tobacco white fly); experiment: Example B7: activity against Bemisia tabaci, sprayed bean plants (larvicide, contact/feeding); type: in vivo; conditions: 504 h, bean plants with N-2 nymphs sprayed, three weeks, read-out: activity (efficacy, number of emerged adults)
Protocol: Activity Against Bemisia tabaci (Tobacco White Fly)
(Larvicide, Contact/Feeding)
Bean plants are infested with 20-30 adults that were removed after a 4 day egg-laying period. After another 7 days, bean plants with hatched nymphs (N-2) are treated (2 replicates) with the test solutions in a spray chamber. Three weeks later, samples are checked for number of emerged adults. Efficacy was calculated by comparing number of emerged adults in treated and non treated samples.

Row | SMILES | mortality at 400 ppm [1] [%] | mortality at 400 ppm [2] [%] | mortality at 400 ppm [3] [%] | mortality at 25 ppm [4] [%] | mortality at 400 ppm [5] [%] | mortality at 400 ppm [6] [%] | mortality at 400 ppm [7] [%] | mortality at 400 ppm [8] [%] | mortality at 200 ppm [9] [%] | pest or weed control at 200 ppm [10] [%]
1 | COCON1C(=O)C(c2cc(C)ccc2C)=C(OC(=O)C2CC2)C12CCN(OC)CC2 [P1.4, Cyclopropanecarboxylic acid 3-(2,5-dimethyl-phenyl)-8-methoxy-1-methoxymethoxy-2-oxo-1,8-diaza-spiro[4.5]dec-3-en-4-yl ester] | > 80 | > 80 | > 80 | > 80 | > 80 | > 80 |  |  |  | 
2 | CCOC(=O)OC1=C(c2cc(C)ccc2C)C(=O)N(O)C12CCN(OC)CC2 [P1.12] | > 80 |  | > 80 |  |  | > 80 | > 80 |  |  | 
3 | CCOC(=O)OC1=C(c2c(C)cc(C)cc2C)C(=O)N(OCC2(C)COC2)C12CCN(OC)CC2 [P1.23] |  | > 80 |  | > 80 |  | > 80 |  | > 80 |  | 
4 | CCOC(=O)OC1=C(c2c(C)cc(C)cc2C)C(=O)N(OCC2CCCO2)C12CCN(OC)CC2 (stereo not drawn) [P1.24] | > 80 | > 80 | > 80 | > 80 | > 80 | > 80 |  | > 80 | ≥ 80 | 
5 | CCOC(=O)OC1=C(c2c(C)cc(C)cc2C)C(=O)N(OCCOC2CCCCO2)C12CCN(OC)CC2 (stereo not drawn) [P1.25] |  |  | > 80 |  | > 80 |  |  | > 80 |  | 
6 | CCOC(=O)OC1=C(c2c(C)cc(C)cc2C)C(=O)N(OC2CCCC2)C12CCN(OC)CC2 [P1.28] |  |  | > 80 |  | > 80 |  |  |  |  | 
7 | CCOC(=O)OC1=C(c2ccc(C)cc2C)C(=O)N(OC2CCCO2)C12CCN(OC)CC2 (stereo not drawn) [P1.47] | > 80 |  |  |  | > 80 | > 80 | > 80 |  |  | 
8 | CCOCON1C(=O)C(c2ccc(C)cc2C)=C(OC(=O)OCC)C12CCN(OC)CC2 [P1.49] | > 80 | > 80 | > 80 | > 80 | > 80 | > 80 | > 80 |  |  | 
9 | CCOC(=O)OC1=C(c2c(C)ccc(C)c2C)C(=O)N(OCOC)C12CCN(OC)CC2 [P1.53] |  | > 80 | > 80 | > 80 |  | > 80 |  | > 80 | ≥ 80 | 
10 | CCOC(=O)OC1=C(c2c(C)ccc(Cl)c2C)C(=O)N(OCOC)C12CCN(OC)CC2 [P1.55] | > 80 | > 80 | > 80 | > 80 |  | > 80 |  | > 80 | ≥ 80 | 
11 | CCOC(=O)OC1=C(c2c(C)ccc(C)c2Cl)C(=O)N(OCOC)C12CCN(OC)CC2 [P1.59] | > 80 | > 80 | > 80 | > 80 | > 80 | > 80 |  | > 80 |  | 
12 | CCOC(=O)OC1=C(c2c(C)cc(Br)cc2C)C(=O)N(OCOC)C12CCN(OC)CC2 [P1.62] |  |  |  |  |  |  | > 80 |  |  | 
13 | CCOC(=O)OC1=C(c2c(C)cc(C)cc2Cl)C(=O)N(OC)C12CCN(OC)CC2 [P1.70] | > 80 | > 80 | > 80 | > 80 |  | > 80 |  | > 80 |  | 
14 | CCOC(=O)OC1=C(c2c(C)cc(C)cc2C)C(=O)N(OCC2CCOC2)C12CCN(OC)CC2 (stereo not drawn) [P1.78] |  | > 80 | > 80 | > 80 | > 80 | > 80 |  | > 80 | ≥ 80 | > 80
15 | CCOC(=O)OC1=C(c2c(C)cc(C)cc2C)C(=O)N(OCc2ccco2)C12CCN(OC)CC2 [P1.81] | > 80 |  |  |  | > 80 | > 80 | > 80 |  | ≥ 80 | 

Reference: patent US20110224079A1, “SPIROHETEROCYCLIC N-OXYAMIDES AS PESTICIDES” (SYNGENTA CROP PROTECTION LLC, priority 2008, published 2011)
